Key:
ACSS2 = ACSS2 (Homo sapiens (Human), UniProt Q9NR19); assay: Cellular assay of 14C acetate incorporation into fatty acids (IC50 ACSS2 cellular lipids); assay type: cell-based; details: HCT-15 cells
Procedure: Cellular Assay of ^14C Acetate Incorporation into Fatty Acids (IC50 ACSS2 Cellular Lipids)
This protocol describes a cellular assay capable to quantify endogenous fatty acid synthesis activity in the human HCT-15 cancer cell line following the incorporation of extracellularly administered radiolabeled ^14C acetate with a scintillation proximity based read out on extracted fatty acids.
HCT-15 cells were grown in RPMI 1640 (Gibco) supplemented with 2 mM glutamine, 1 mM sodium pyruvate 10 mM HEPES and 10% FCS (heat-inactivated) passaged every 2-3 days to remain a subconfluent, vital culture. A working cell bank was prepared with each aliquot containing 1×10^7 viable cells. After thawing, these cells are dilute immediately 1:20 in pre-warmed (37° C.) culture medium. Cells are collected by centrifugation at 200×g for 5 min, and the supernatant is replaced by 30 mL of fresh culture medium per aliquot to obtain a cell suspension containing 350000 cells/ml. From this cell suspension 100 μL are dispersed into each well of a collagen coated 96 well plate, (black, clear bottom, PS, F-bottom, Greiner) and culture for 24 h (37° C., 5% CO2). After incubation the culture medium is removed and the wells are washed once with 100 μL PBS++(supplemented with Mg^2+/Ca^2+, Gibco) and 50 μL assay medium (RPMI 1640+10 mM HEPES) are added to each well. Compounds serial dilutions are prepared from 10 mM stock solutions in DMSO using a fixed dilution factor (usually 1:3). After preparation of the dilution series in DMSO, the individual dilutions are further diluted in the assay medium. This working dilution is prepared such, that the concentration is 7× of the final concentration in the assay. The maximal DMSO concentration in the final assay is 0.1%.
To each well 10 μL compound working dilution or DMSO blank are added and the cells are cultured for 2 h (37° C., 5% CO2). Then 10 μL AlamarBlue reagent (Invitrogen) containing 14 μCi/mL 14C-acetate (Perkin Elmer) are added to each well (70 μl total volume) and cells are again cultured for 2 h. Cell viability is verified by measuring the AlamarBlue fluorescence (Tecan Safire, ex: 544 nm/em: 590 nm). After incubation the culture medium is removed and the wells are carefully washed once with cold 100 μL PBS++. For cell lysis and fatty acid recovery 50 μl 0.1 M NaOH and 0.1% Triton-X100 are added per well. The plate is sealed with PlateLoc (clear peelable heat seal, Agilent) and incubate at 70° C. for 16-24 h. After cooling to room temperature, the plates are centrifuged for 1 min at 1000 rpm and the plate seals are removed. For acidification 150 μL 0.1 M HCl are added to each well, mixed and 150 μL of the mixture are transferred into a 96 well FlashPlate (Perkin Elmer). The plates are sealed with TopSeal-A (Perkin Elmer). To allow for the fatty acid binding to the well surfaces the plates are incubate for 4 h at 70° C. After cooling to room temperature, the plates are centrifuged for 1 min at 1000 rpm and stored for 0.5-2h at room temperature in the dark. Radioactivity from ^14C incorporation into fatty acids in the wells is measured as CPM count in a MicroBeta scintillation counter (Perkin Elmer).

CYP3A4 = assay: CYP-induction assay in HepaRG cells, QuantiGene Plex 2.0 (CYP3A4 induction); assay type: in vitro ADME, human; details: 48 hrs; for CYP3A4 (in parentheses: lowest concentration causing at least 2-fold induction): value in parentheses; for CYP3A4 (significant induction above 20% threshold): value outside parentheses
From the text: CYP-Induction Assay in HepaRG Cells with the QuantiGene Plex 2.0 Reagent System (Branched DNA-Assay) from Affymetrix (Thermo Scientific) (CYP3A4 Induction)
The QuantiGene Plex 2.0 assay combines branched DNA (bDNA) signal amplification and multi-analyte profiling beads (xMAP®) technologies to enable the detection and quantitation of multiple RNA targets simultaneously. The xMAP system combines a flow cytometer, fluorescent-dyed microspheres (beads), lasers and digital signal processing to allow multiplexing of up to 100 unique assays within a single sample.
Human HepaRG cells (Thermo Scientific) were thawed and seeded with a density of 0.72E6 cells/ml in a collagen precoated 96-well plate. After an adaption phase of 3 days in first Williams E medium (Gibco+thawing supplement, Thermo Scientific) the medium was changed to second Williams E medium (Gibco+tox supplement, Thermo Scientific). Daily treatment with test substances at 4 concentrations, started between day 3-10 of culturing, was performed with an incubation time of 48 hrs. After 48 hrs the cells were lysed with 100 μl/well (Lysis mixture, Affymetrix diluted 1:2 with Williams E medium, Gibco and addition of 5 μl proteinase K/ml of the mixture, Affymetrix). The QuantiGene Plex 2.0 assay utilizes fluorescent capture beads to trap specific RNA molecules. In order to hybridize and span contiguous sequences of the target RNA, the probe set containing 3 types of synthetic probes (Capture Extenders, Label Extenders, and Blockers) was incubated with samples and beads at 600 rpm at 54° C. for 16-20 h. Signal amplification was mediated by DNA amplification molecules that hybridize to the tails of the label extenders (incubation of the over-night hybridized beads with pre-amplifier and amplifier reagent for 1 h at 50° C. each, washing steps in between). Each amplification unit contains multiple hybridization sites for biotinylated label probes (incubation with label probe reagent for 1 h at 50° C., washing step in between) that bind Streptavidin-conjugated R-Phycoerythrin (SAPE, last incubation step for 30 min at room temp.). After the SAPE incubation, a last washing step with SAPE buffer was performed (120 μl left in wells). The resulting fluorescence signal associated with individual capture beads was detected on a Luminex 200 flow cytometer (parameters: volume 100 μl, timeout 45 sec., DD-gate 5,000-25,000, bead events 50). Signals were reported as median fluorescence intensity (MFI) and were proportional to the number of target RNA molecules present in the sample.
For analysis of results, calculation of mean values of 3 technical replicates as well as the standard deviations (% SD up to 30% acceptable) were carried out. The mean value of the blank was subtracted from the mean value of the sample. As the genes HPRT1 and TFRC are housekeeping genes, they are used to normalize sample mean values [(Sample Mean−Blank)/Housekeeper (Mean−Blank)=normalized value (HPRT1 or TFRC)]. Calculation of the fold-change was performed by dividing normalized sample values by the normalized mean values of the DMSO controls [(Sample Mean−Blank)/Housekeeper (Mean−Blank)=fc; (DMSO Mean−Blank)/Housekeeper (Mean−Blank)].
Experimental data of the compounds shown in Table 1 in the CYP3A4 assay are shown in Table 2 below and given in μM (significant induction above 20% threshold; in parentheses: lowest concentration causing at least 2-fold induction): […]

Sequence of ACSS2 (Q9NR19 whole entry): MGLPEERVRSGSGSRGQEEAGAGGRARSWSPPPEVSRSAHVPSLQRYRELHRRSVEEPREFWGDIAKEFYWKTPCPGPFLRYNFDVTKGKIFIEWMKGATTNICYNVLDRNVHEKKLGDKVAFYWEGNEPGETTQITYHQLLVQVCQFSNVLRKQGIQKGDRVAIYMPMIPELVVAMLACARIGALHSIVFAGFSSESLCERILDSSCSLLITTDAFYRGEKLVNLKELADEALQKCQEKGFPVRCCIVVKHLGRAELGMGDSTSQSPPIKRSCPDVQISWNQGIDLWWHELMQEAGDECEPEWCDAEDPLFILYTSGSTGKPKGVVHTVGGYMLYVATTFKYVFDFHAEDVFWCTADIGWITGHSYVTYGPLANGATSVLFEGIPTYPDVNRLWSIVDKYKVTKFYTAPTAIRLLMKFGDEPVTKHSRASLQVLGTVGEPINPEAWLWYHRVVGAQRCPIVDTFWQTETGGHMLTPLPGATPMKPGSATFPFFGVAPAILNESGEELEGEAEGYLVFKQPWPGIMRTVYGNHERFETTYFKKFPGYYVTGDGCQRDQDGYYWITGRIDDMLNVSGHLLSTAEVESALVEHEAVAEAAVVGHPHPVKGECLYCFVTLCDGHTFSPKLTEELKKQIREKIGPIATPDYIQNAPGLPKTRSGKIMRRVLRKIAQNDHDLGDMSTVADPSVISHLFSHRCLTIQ

SMILES | IC50 (ACSS2) [nM] | CYP3A4 (in parentheses: lowest concentration causing at least 2-fold induction) (CYP3A4) [µM] | CYP3A4 (significant induction above 20% threshold) (CYP3A4) [µM]
CCn1c(C(O)(c2ccccc2)c2ccccc2)nc2nc(OC)c(-c3nnn[nH]3)cc21 [Compound 58, [1-ethyl-5-methoxy-6-(1H-1,2,3,4-tetrazol-5-yl)-1H-imidazo[4,5-b]pyridin-2-yl]diphenylmethanol] | 0.01 to 1 | 50 | 3.8
CCc1c(C(O)(c2ccccc2)c2ccccc2)nn2cc(Cl)c(-c3nnn[nH]3)cc12 [Compound 21, [6-Chloro-3-ethyl-5-(1H-tetrazol-5-yl)-pyrazolo[1,5-a]pyridin-2-yl]-diphenyl-methanol] | 1 to 10 | 50 | 2.6
CCn1c(C(O)(c2ccccc2F)c2ccccc2F)nc2nc(C)c(-c3nnn[nH]3)cc21 [Compound 59, [1-ethyl-5-methyl-6-(1H-1,2,3,4-tetrazol-5-yl)-1H-imidazo[4,5-b]pyridin-2-yl]bis(2-fluorophenyl)methanol] | 10 to 100 | 5 | 13.4
CCn1c(C(O)(c2ccccc2)c2ccccc2)nc2ccc(C(=O)NC[C@@H](C)O)cc21 [Reference Compound, 3-Ethyl-2-[hydroxy(diphenyl)methyl]-N-[(2R)-2-hydroxypropyl]benzimidazole-5-carboxamide, reference compound] | 1 to 10 | 0.15 | 4.1

— patent US20240009175A9, “TETRAZOLE DERIVATIVES” (Merck Patent GmbH, priority 2020, published 2024)
